How the values were obtained:
[1] = In vitro serum stability of radiolabeled C-NE3TA complexes in human serum (SE-HPLC); assay type: in vitro ADME; conditions: 37° C., up to 11 days
Procedure: C-NE3TA was radiolabeled with ^90Y, ^177Lu, ^203Pb, ^205/6Bi, or ^153Gd as previously described (Chong, H. S.; Milenic, D. E.; Garmestani, K.; Brady, E. D.; Arora, H.; Pfiester, C.; Brechbiel, M. W., Nucl. Med. Biol. 2006, 33, 459-67; Chong H S, Garmestani K, Bryant Jr., L H Milenic D E, Overstreet T, Birch N, Le N, Brady E D, Brechbiel M W. J. Med. Chem. 2006, 49, 2055-2062). In vitro serum stability of the radiolabeled complexes purified via ion-exchange chromatography was performed to determine if C-NE3TA labeled with the radioisotopes remained stable without transchelation or loss of their respective radionuclide in human serum. This was assessed by measuring the transfer of radionuclide from the complex to serum proteins over the course of 11 days.
In vitro stability of the radiolabeled metal complexes. The stability of the purified radiolabeled complexes was evaluated in human serum (Gemini Bioproducts, Woodland, Calif.) for up to 11 days. The serum stability of the radiolabeled complexes was assessed by measuring the transfer of the radionuclide from each complex to serum proteins using SE-HPLC methods. Radiolabeled complexes were diluted to an appropriate volume that allowed for preparation of multiple samples containing 5-10 μCi and were filter-sterilized using a Millex-GV 0.22 μm filter. This stock solution was then mixed with 1400 μL of sterile normal human serum. Aliquots (200 μL) were drawn and separated into individual tubes for subsequent analysis using aseptic technique. The samples were incubated at 37° C., and at designated intervals, subjected to analysis by SE-HPLC. Samples were loaded onto the HPLC and eluted with PBS, pH 7.4 isocratically at 1 mL/min. […] Radioactivity associated with a transfer to serum proteins generally appeared at ˜6 min.

[2] = In vivo biodistribution of radiolabeled complexes in normal athymic mice; conditions: for percent injected dose per gram, Blood / percent injected dose per gram, Femur / percent injected dose per gram, Heart / percent injected dose per gram, Kidney / percent injected dose per gram, Liver / percent injected dose per gram, Liver (second Liver line of Table 7) / percent injected dose per gram, Lung / percent injected dose per gram, Spleen: non-tumor bearing mice, ± SD
Procedure: The in vivo stability of the radiolabeled complexes was evaluated by performing biodistribution studies in normal athymic mice. Selected organs and the blood were harvested at five time points, 0.5, 1, 4, 8, and 24 h post-injection and the radioactivity measured. […] C-NE3TA radiolabeled with ^153Gd was almost completely cleared from blood, liver, spleen, lung, heart, and femur in less than 4 hours, and radioactivity level in the kidney was 0.16%±0.11 ID/g at 24 hour post-injection (Table 9).
In vivo biodistribution studies oh the radiolabeled metal complexes. Female athymic mice were obtained from Charles River Laboratories (Wilmington, Mass.) at 4-6 weeks of age. The pH of the radiolabeled ligands was adjusted to pH ˜7.0 with 0.5 M sodium bicarbonate (pH 10.5) and diluted in phosphate-buffered saline. The radiolabeled ligands ([…] for ^86Y, ^205/6Bi, ^177Lu, and ^203Pb) were administered to the mice in 200 μL of solution via tail vein injection. The mice (5 per data point) were sacrificed by exsanguination at 0.5, 1, 4, 8, and 24 h. Blood and the major organs were harvested, wet-weighed and the radioactivity measured in a γ-scintillation counter (1480 Wizard, Perkin Elmer). The percent injected dose per gram (% ID/g) was determined for each tissue. The values presented are the mean and standard deviation for each tissue.

## O=C(O)CNC(Cc1ccc([N+](=O)[O-])cc1)CN1CCN(CC(=O)O)CCN(CC(=O)O)CC1.[90Y] (stereo not drawn) [^90Y-C-NE3TA]
[1]
  stability in human serum (in words): no measurable loss of radioactivity
[2]; 0.50 hr
  percent injected dose per gram, Blood: 1.86 ± 1.92 % ID/g
  percent injected dose per gram, Femur: 1.19 ± 0.48 % ID/g
  percent injected dose per gram, Heart: 0.79 ± 0.52 % ID/g
  percent injected dose per gram, Kidney: 2.58 ± 1.04 % ID/g
  percent injected dose per gram, Liver: 1.65 ± 0.59 % ID/g
  percent injected dose per gram, Liver (second Liver line of Table 7): 0.48 ± 0.08 % ID/g
  percent injected dose per gram, Lung: 1.64 ± 0.99 % ID/g
  percent injected dose per gram, Spleen: 0.70 ± 0.15 % ID/g
[2]; 1.00 hr
  percent injected dose per gram, Blood: 0.76 ± 1.09 % ID/g
  percent injected dose per gram, Femur: 0.82 ± 0.26 % ID/g
  percent injected dose per gram, Heart: 0.38 ± 0.31 % ID/g
  percent injected dose per gram, Kidney: 2.00 ± 2.32 % ID/g
  percent injected dose per gram, Liver: 0.88 ± 0.59 % ID/g
  percent injected dose per gram, Liver (second Liver line of Table 7): 0.32 ± 0.07 % ID/g
  percent injected dose per gram, Lung: 1.16 ± 0.65 % ID/g
  percent injected dose per gram, Spleen: 0.47 ± 0.26 % ID/g
[2]; 4.00 hr
  percent injected dose per gram, Blood: 0.05 ± 0.05 % ID/g
  percent injected dose per gram, Femur: 0.30 ± 0.04 % ID/g
  percent injected dose per gram, Heart: 0.06 ± 0.02 % ID/g
  percent injected dose per gram, Kidney: 0.74 ± 0.15 % ID/g
  percent injected dose per gram, Liver: 0.17 ± 0.05 % ID/g
  percent injected dose per gram, Liver (second Liver line of Table 7): 0.29 ± 0.03 % ID/g
  percent injected dose per gram, Lung: 0.10 ± 0.04 % ID/g
  percent injected dose per gram, Spleen: 0.13 ± 0.08 % ID/g
[2]; 8.00 hr
  percent injected dose per gram, Blood: 0.02 ± 0.00 % ID/g
  percent injected dose per gram, Femur: 0.22 ± 0.06 % ID/g
  percent injected dose per gram, Heart: 0.05 ± 0.01 % ID/g
  percent injected dose per gram, Kidney: 0.49 ± 0.10 % ID/g
  percent injected dose per gram, Liver: 0.20 ± 0.16 % ID/g
  percent injected dose per gram, Liver (second Liver line of Table 7): 0.22 ± 0.03 % ID/g
  percent injected dose per gram, Lung: 0.16 ± 0.22 % ID/g
  percent injected dose per gram, Spleen: 0.07 ± 0.02 % ID/g
[2]; 24.00 hr
  percent injected dose per gram, Blood: 0.00 ± 0.00 % ID/g
  percent injected dose per gram, Femur: 0.08 ± 0.02 % ID/g
  percent injected dose per gram, Heart: 0.02 ± 0.01 % ID/g
  percent injected dose per gram, Kidney: 0.35 ± 0.05 % ID/g
  percent injected dose per gram, Liver: 0.10 ± 0.03 % ID/g
  percent injected dose per gram, Liver (second Liver line of Table 7): 0.17 ± 0.02 % ID/g
  percent injected dose per gram, Lung: 0.23 ± 0.36 % ID/g
  percent injected dose per gram, Spleen: 0.07 ± 0.02 % ID/g
[2]; normal athymic mice
  blood and organ clearance (in words): rapid blood and liver clearance

From patent US10189803B2, “Synthesis of therapeutic and diagnostic drugs centered on regioselective and stereoselective ring opening of aziridinium ions” (ILLINOIS INSTITUTE OF TECHNOLOGY, priority 2008, dated 2019)
